The NIST ThermoML archive (doi:10.1021/je8009418)
± gives the expanded uncertainty stated by the source.

Settings: Liquid; for speed of sound: Pulse-echo method; for mass density: Vibrating tube method

OC1CCCC1 [cyclopentanol]
Settings	mass density [kg/m3]	speed of sound [m/s]
292.85 K, 15200 kPa	–	1519.5 ± 2.4
292.85 K, 30390 kPa	–	1576.3 ± 2.4
292.85 K, 45590 kPa	–	1629.1 ± 2.4
292.85 K, 60790 kPa	–	1677.8 ± 2.4
292.85 K, 75990 kPa	–	1723.9 ± 2.5
292.85 K, 91180 kPa	–	1767.2 ± 2.5
292.85 K, 101320 kPa	–	1795 ± 2.5
292.86 K, 100 kPa	–	1454.4 ± 1.6
293.15 K, 101.33 kPa	946.792 ± 0.23	–
298.14 K, 15200 kPa	–	1500.4 ± 2.4
298.14 K, 30390 kPa	–	1557.8 ± 2.4
298.14 K, 45590 kPa	–	1611.5 ± 2.4
298.14 K, 60790 kPa	–	1661 ± 2.4
298.14 K, 75990 kPa	–	1707.2 ± 2.5
298.14 K, 91180 kPa	–	1751.2 ± 2.5
298.14 K, 101320 kPa	–	1779.3 ± 2.5
298.15 K, 101.33 kPa	942.856 ± 0.23	1435.1 ± 1.6
298.17 K, 100 kPa	–	1435 ± 1.6
303.12 K, 15200 kPa	–	1482.2 ± 2.4
303.12 K, 30390 kPa	–	1540.4 ± 2.4
303.12 K, 45590 kPa	–	1595.1 ± 2.4
303.12 K, 60790 kPa	–	1645.6 ± 2.4
303.12 K, 75990 kPa	–	1692.6 ± 2.5
303.12 K, 91180 kPa	–	1737.2 ± 2.5
303.12 K, 101320 kPa	–	1765.5 ± 2.5
303.15 K, 100 kPa	–	1416.9 ± 1.6
303.16 K, 101.33 kPa	938.874 ± 0.23	–
308.11 K, 15200 kPa	–	1464.8 ± 2.4
308.11 K, 30390 kPa	–	1524.5 ± 2.4
308.11 K, 45590 kPa	–	1579.4 ± 2.4
308.11 K, 60790 kPa	–	1630.6 ± 2.4
308.11 K, 75990 kPa	–	1678 ± 2.5
308.11 K, 101320 kPa	–	1751.6 ± 2.5
308.12 K, 91180 kPa	–	1723 ± 2.5
308.13 K, 100 kPa	–	1398.7 ± 1.6
308.15 K, 101.33 kPa	934.843 ± 0.23	–
313.09 K, 15200 kPa	–	1447.6 ± 2.4
313.09 K, 30390 kPa	–	1508.3 ± 2.4
313.09 K, 45590 kPa	–	1564 ± 2.4
313.09 K, 60790 kPa	–	1616.1 ± 2.4
313.09 K, 75990 kPa	–	1664.1 ± 2.5
313.09 K, 91180 kPa	–	1709.5 ± 2.5
313.09 K, 101320 kPa	–	1738.6 ± 2.5
313.12 K, 100 kPa	–	1380.6 ± 1.6
313.15 K, 101.33 kPa	930.754 ± 0.23	–
318.15 K, 101.33 kPa	926.613 ± 0.24	–
318.19 K, 15200 kPa	–	1430.8 ± 2.4
318.19 K, 45590 kPa	–	1548.6 ± 2.4
318.19 K, 60790 kPa	–	1601.4 ± 2.4
318.19 K, 75990 kPa	–	1650.3 ± 2.5
318.19 K, 101320 kPa	–	1725.3 ± 2.5
318.2 K, 30390 kPa	–	1492.4 ± 2.4
318.2 K, 91180 kPa	–	1695.8 ± 2.5
318.29 K, 100 kPa	–	1361.8 ± 1.6

CCCCCO [pentan-1-ol]
Settings	mass density [kg/m3]	speed of sound [m/s]
292.81 K, 100 kPa	–	1293.9 ± 1.4
292.88 K, 76010 kPa	–	1611.2 ± 2.4
292.88 K, 91210 kPa	–	1660 ± 2.4
292.88 K, 101330 kPa	–	1691.4 ± 2.5
292.91 K, 45590 kPa	–	1501.6 ± 2.3
292.91 K, 60810 kPa	–	1558.3 ± 2.3
292.95 K, 15200 kPa	–	1371.5 ± 2.2
292.96 K, 30400 kPa	–	1439.7 ± 2.3
293.15 K, 101.33 kPa	814.5 ± 0.19	–
297.93 K, 30400 kPa	–	1424.8 ± 2.3
297.93 K, 45600 kPa	–	1487.1 ± 2.3
297.93 K, 60800 kPa	–	1544.3 ± 2.3
297.93 K, 75990 kPa	–	1597.6 ± 2.4
297.93 K, 91190 kPa	–	1647.3 ± 2.4
297.93 K, 101340 kPa	–	1678.7 ± 2.5
297.94 K, 15200 kPa	–	1355.5 ± 2.2
298.15 K, 101.33 kPa	810.84 ± 0.19	1275.2 ± 1.4
298.18 K, 100 kPa	–	1275.1 ± 1.4
303.05 K, 45600 kPa	–	1472.8 ± 2.3
303.06 K, 15200 kPa	–	1339.3 ± 2.2
303.06 K, 30410 kPa	–	1409.7 ± 2.3
303.06 K, 91180 kPa	–	1634.6 ± 2.4
303.06 K, 101330 kPa	–	1666.3 ± 2.5
303.1 K, 60790 kPa	–	1530.6 ± 2.3
303.1 K, 76000 kPa	–	1584.1 ± 2.4
303.15 K, 100 kPa	–	1258 ± 1.4
303.15 K, 101.33 kPa	807.155 ± 0.19	–
308.04 K, 45600 kPa	–	1459 ± 2.3
308.05 K, 76000 kPa	–	1571.6 ± 2.4
308.06 K, 60800 kPa	–	1517.5 ± 2.3
308.06 K, 91210 kPa	–	1622.5 ± 2.4
308.06 K, 101330 kPa	–	1654.2 ± 2.5
308.08 K, 15200 kPa	–	1323.5 ± 2.2
308.08 K, 30400 kPa	–	1394.8 ± 2.3
308.13 K, 100 kPa	–	1240.9 ± 1.4
308.15 K, 101.33 kPa	803.442 ± 0.19	–
313.02 K, 101340 kPa	–	1642.9 ± 2.5
313.03 K, 30400 kPa	–	1380.7 ± 2.3
313.03 K, 60790 kPa	–	1504.8 ± 2.3
313.03 K, 75990 kPa	–	1559.2 ± 2.4
313.03 K, 91190 kPa	–	1610.7 ± 2.4
313.04 K, 15210 kPa	–	1308.5 ± 2.2
313.05 K, 45600 kPa	–	1445.5 ± 2.3
313.11 K, 100 kPa	–	1224.1 ± 1.4
313.15 K, 101.33 kPa	799.705 ± 0.19	–
318.15 K, 101.33 kPa	795.912 ± 0.19	–
318.49 K, 76000 kPa	–	1546.4 ± 2.4
318.49 K, 91200 kPa	–	1598.1 ± 2.4
318.5 K, 60800 kPa	–	1491.2 ± 2.3
318.51 K, 45590 kPa	–	1431.3 ± 2.3
318.51 K, 101330 kPa	–	1630.8 ± 2.5
318.52 K, 15200 kPa	–	1292 ± 2.2
318.52 K, 30400 kPa	–	1365.4 ± 2.3
318.68 K, 100 kPa	–	1205.5 ± 1.4
